Measurements: ChEMBL document CHEMBL3862012, “Methylene versus carbonyl bridge in the structure of new tubulin polymerization inhibitors with tricyclic A-rings” (Bioorg Med Chem, 2016)

Legend:
Ovis aries = organism: Ovis aries; assay: Inhibition of sheep brain tubulin polymerization at 100 uM by DAPI staining-based fluorimetric method relative to control
[1] = Cytotoxicity against human CCRF-CEM cells assessed as growth inhibition at 10 uM after 48 hrs by SRB assay relative to control; assay type: functional; settings: read-out: GI
[2] = Cytotoxicity against human RPMI8226 cells assessed as growth inhibition at 10 uM after 48 hrs by SRB assay relative to control; assay type: functional; settings: RPMI-8226, 48 h, read-out: GI
[3] = Cytotoxicity against human SR cells assessed as growth inhibition at 10 uM after 48 hrs by SRB assay relative to control; assay type: functional; settings: read-out: GI
[4] = Cytotoxicity against human A549 cells assessed as growth inhibition at 10 uM after 48 hrs by SRB assay relative to control; assay type: functional; settings: A549, 48 h, read-out: GI
[5] = Cytotoxicity against human EKVX cells assessed as growth inhibition at 10 uM after 48 hrs by SRB assay relative to control; assay type: functional; settings: read-out: GI
[6] = Cytotoxicity against human HOP62 cells assessed as growth inhibition at 10 uM after 48 hrs by SRB assay relative to control; assay type: functional; settings: HOP-62, 48 h, read-out: GI
[7] = Cytotoxicity against human NCI-H226 cells assessed as growth inhibition at 10 uM after 48 hrs by SRB assay relative to control; assay type: functional; settings: NCI-H226, 48 h, read-out: GI
[8] = Cytotoxicity against human NCI-H23 cells assessed as growth inhibition at 10 uM after 48 hrs by SRB assay relative to control; assay type: functional; settings: NCI-H23, 48 h, read-out: GI
[9] = Cytotoxicity against human NCI-H322M cells assessed as growth inhibition at 10 uM after 48 hrs by SRB assay relative to control; assay type: functional; settings: read-out: GI
[10] = Cytotoxicity against human NCI-H460 cells assessed as growth inhibition at 10 uM after 48 hrs by SRB assay relative to control; assay type: functional; settings: NCI-H460, 48 h, read-out: GI
[11] = Cytotoxicity against human COLO205 cells assessed as growth inhibition at 10 uM after 48 hrs by SRB assay relative to control; assay type: functional; settings: COLO 205, 48 h, read-out: GI
[12] = Cytotoxicity against human HCT15 cells assessed as growth inhibition at 10 uM after 48 hrs by SRB assay relative to control; assay type: functional; settings: HCT-15, 48 h, read-out: GI
[13] = Cytotoxicity against human HT-29 cells assessed as growth inhibition at 10 uM after 48 hrs by SRB assay relative to control; assay type: functional; settings: HT-29, 48 h, read-out: GI
[14] = Cytotoxicity against human KM12 cells assessed as growth inhibition at 10 uM after 48 hrs by SRB assay relative to control; assay type: functional; settings: KM12, 48 h, read-out: GI
[15] = Cytotoxicity against human SF295 cells assessed as growth inhibition at 10 uM after 48 hrs by SRB assay relative to control; assay type: functional; settings: SF-295, 48 h, read-out: GI
[16] = Cytotoxicity against human SNB19 cells assessed as growth inhibition at 10 uM after 48 hrs by SRB assay relative to control; assay type: functional; settings: SNB-19, 48 h, read-out: GI
[17] = Cytotoxicity against human SNB75 cells assessed as growth inhibition at 10 uM after 48 hrs by SRB assay relative to control; assay type: functional; settings: SNB-75, 48 h, read-out: GI
[18] = Cytotoxicity against human U251 cells assessed as growth inhibition at 10 uM after 48 hrs by SRB assay relative to control; assay type: functional; settings: U-251, 48 h, read-out: GI
[19] = Cytotoxicity against human LOXIMVI cells assessed as growth inhibition at 10 uM after 48 hrs by SRB assay relative to control; assay type: functional; settings: LOX IMVI, read-out: GI
[20] = Cytotoxicity against human MALME-3M cells assessed as growth inhibition at 10 uM after 48 hrs by SRB assay relative to control; assay type: functional; settings: read-out: GI
[21] = Cytotoxicity against human MDA-MB-435 cells assessed as growth inhibition at 10 uM after 48 hrs by SRB assay relative to control; assay type: functional; settings: MDA-MB-435, 48 h, read-out: GI
[22] = Cytotoxicity against human UACC257 cells assessed as growth inhibition at 10 uM after 48 hrs by SRB assay relative to control; assay type: functional; settings: UACC-257, 48 h, read-out: GI
[23] = Cytotoxicity against human OVCAR3 cells assessed as growth inhibition at 10 uM after 48 hrs by SRB assay relative to control; assay type: functional; settings: OVCAR-3, 48 h, read-out: GI
[24] = Cytotoxicity against human NCI-ADR-RES cells assessed as growth inhibition at 10 uM after 48 hrs by SRB assay relative to control; assay type: functional; settings: read-out: GI
[25] = Cytotoxicity against human SKOV3 cells assessed as growth inhibition at 10 uM after 48 hrs by SRB assay relative to control; assay type: functional; settings: SK-OV-3, 48 h, read-out: GI
[26] = Cytotoxicity against human 786-0 cells assessed as growth inhibition at 10 uM after 48 hrs by SRB assay relative to control; assay type: functional; settings: 786-0, 48 h, read-out: GI
[27] = Cytotoxicity against human A498 cells assessed as growth inhibition at 10 uM after 48 hrs by SRB assay relative to control; assay type: functional; settings: A498, 48 h, read-out: GI
[28] = Cytotoxicity against human Caki1 cells assessed as growth inhibition at 10 uM after 48 hrs by SRB assay relative to control; assay type: functional; settings: CAKI-1, 48 h, read-out: GI
[29] = Cytotoxicity against human RXF393 cells assessed as growth inhibition at 10 uM after 48 hrs by SRB assay relative to control; assay type: functional; settings: RXF 393, 48 h, read-out: GI
[30] = Cytotoxicity against human TK10 cells assessed as growth inhibition at 10 uM after 48 hrs by SRB assay relative to control; assay type: functional; settings: TK-10, 48 h, read-out: GI
[31] = Cytotoxicity against human UO31 cells assessed as growth inhibition at 10 uM after 48 hrs by SRB assay relative to control; assay type: functional; settings: UO-31, 48 h, read-out: GI
[32] = Cytotoxicity against human PC3 cells assessed as growth inhibition at 10 uM after 48 hrs by SRB assay relative to control; assay type: functional; settings: PC-3, 48 h, read-out: GI
[33] = Cytotoxicity against human DU145 cells assessed as growth inhibition at 10 uM after 48 hrs by SRB assay relative to control; assay type: functional; settings: DU-145, 48 h, read-out: GI
[34] = Cytotoxicity against human MDA-MB-231 cells assessed as growth inhibition at 10 uM after 48 hrs by SRB assay relative to control; assay type: functional; settings: MDA-MB-231, 48 h, read-out: GI
[35] = Cytotoxicity against human BT549 cells assessed as growth inhibition at 10 uM after 48 hrs by SRB assay relative to control; assay type: functional; settings: BT-549, 48 h, read-out: GI
[36] = Cytotoxicity against human MDA-MB-468 cells assessed as growth inhibition at 10 uM after 48 hrs by SRB assay relative to control; assay type: functional; settings: MDA-MB-468, 48 h, read-out: GI

| Structure (SMILES) | inhibition (Ovis aries) [%] | inhibition of growth at 10 µM [1] [%] | inhibition of growth at 10 µM [2] [%] | inhibition of growth at 10 µM [3] [%] | inhibition of growth at 10 µM [4] [%] | inhibition of growth at 10 µM [5] [%] | inhibition of growth at 10 µM [6] [%] | inhibition of growth at 10 µM [7] [%] | inhibition of growth at 10 µM [8] [%] | inhibition of growth at 10 µM [9] [%] | inhibition of growth at 10 µM [10] [%] | inhibition of growth at 10 µM [11] [%] | inhibition of growth at 10 µM [12] [%] | inhibition of growth at 10 µM [13] [%] | inhibition of growth at 10 µM [14] [%] | inhibition of growth at 10 µM [15] [%] | inhibition of growth at 10 µM [16] [%] | inhibition of growth at 10 µM [17] [%] | inhibition of growth at 10 µM [18] [%] | inhibition of growth at 10 µM [19] [%] | also measured |
| --- | --- | --- | --- | --- | --- | --- | --- | --- | --- | --- | --- | --- | --- | --- | --- | --- | --- | --- | --- | --- | --- |
| COc1ccc(CN2c3ccccc3CCc3ccccc32)cc1F | 58 | 96 | 91 | 88 | 79 | 59 | 63 | 47 | 61 | 42 | 93 | 100 | 75 | 98 | 83 | 88 | 61 | 77 | 79 | 50 | inhibition of growth at 10 µM [20]: 16%; inhibition of growth at 10 µM [21]: 100%; inhibition of growth at 10 µM [22]: 38%; inhibition of growth at 10 µM [23]: 100%; inhibition of growth at 10 µM [24]: 89%; inhibition of growth at 10 µM [25]: 62%; inhibition of growth at 10 µM [26]: 66%; inhibition of growth at 10 µM [27]: 100%; inhibition of growth at 10 µM [28]: 70%; inhibition of growth at 10 µM [29]: 82%; inhibition of growth at 10 µM [30]: 37%; inhibition of growth at 10 µM [31]: 57%; inhibition of growth at 10 µM [32]: 76%; inhibition of growth at 10 µM [33]: 91%; inhibition of growth at 10 µM [34]: 83%; inhibition of growth at 10 µM [35]: 46%; inhibition of growth at 10 µM [36]: 96% |
| COc1ccc(CN2c3ccccc3Sc3ccccc32)cc1O | 64 | 92 | 76 | 84 | 86 | 63 | 64 | 29 | 63 | 67 | 90 | 100 | 67 | 91 | 82 | 96 | 67 | 73 | 82 | 57 | inhibition of growth at 10 µM [20]: 28%; inhibition of growth at 10 µM [21]: 99%; inhibition of growth at 10 µM [22]: 48%; inhibition of growth at 10 µM [23]: 93%; inhibition of growth at 10 µM [24]: 82%; inhibition of growth at 10 µM [25]: 71%; inhibition of growth at 10 µM [26]: 57%; inhibition of growth at 10 µM [27]: 24%; inhibition of growth at 10 µM [28]: 64%; inhibition of growth at 10 µM [29]: 100%; inhibition of growth at 10 µM [30]: 42%; inhibition of growth at 10 µM [31]: 76%; inhibition of growth at 10 µM [32]: 74%; inhibition of growth at 10 µM [33]: 82%; inhibition of growth at 10 µM [34]: 59%; inhibition of growth at 10 µM [35]: 45%; inhibition of growth at 10 µM [36]: 91% |
| COc1ccc(CN2c3ccccc3Sc3ccccc32)c(F)c1 | 7 | 93 | 88 | 88 | 66 | 49 | 73 | 44 | 50 | 55 | 89 | 88 | 65 | 96 | 74 | 92 | 59 | 100 | 70 | 47 | inhibition of growth at 10 µM [20]: 43%; inhibition of growth at 10 µM [21]: 100%; inhibition of growth at 10 µM [22]: 48%; inhibition of growth at 10 µM [23]: 100%; inhibition of growth at 10 µM [24]: 78%; inhibition of growth at 10 µM [25]: 70%; inhibition of growth at 10 µM [26]: 58%; inhibition of growth at 10 µM [27]: 100%; inhibition of growth at 10 µM [28]: 78%; inhibition of growth at 10 µM [29]: 99%; inhibition of growth at 10 µM [30]: 49%; inhibition of growth at 10 µM [31]: 57%; inhibition of growth at 10 µM [32]: 70%; inhibition of growth at 10 µM [33]: 79%; inhibition of growth at 10 µM [34]: 40%; inhibition of growth at 10 µM [35]: 47%; inhibition of growth at 10 µM [36]: 98% |
